From US8084424B2, “Compositions and methods related to erythropoietin” (University of Utah Research Foundation, priority 2003, dated 2011)
Where a SMILES comes first, the peptide text is derived from it. [ ]: non-standard residue; d: D form. The star is where a group is joined. Sta = CC(C)C[C@H](N)[C@@H](O)CC(=O)O; Isovaleryl = CC(C)CC(=O)*

What was measured:
proteases = assay: Protease inhibitor test: EPO degradation in concentrated medium at pH5.0, assayed by RIA; format: biochemical; details: pH5.0, 37° C.
Procedure: Protease inhibitors can also be added to the conditioned medium in order to improve EPO yields. Several commercially available protease inhibitors were tested to see if they could prevent EPO degradation at pH5.0. 10× concentrated (Step 1) EPO medium was diluted 1:10 in 50 mM Na Acetate, pH5.0 and then incubated at 37° C. with or without protease inhibitors at a concentration of 5 micrograms/ml. Aliquots were taken over a period of 29 hours and assayed by RIA. […] Pepstatin was then tested to determine the minimum concentration at which it is effective. Under the same conditions as described above, pepstatin was included into 10× concentrated medium over range of 0.0005 to 1 ug/ml and incubated at 37° C. for 25 hours. […] To test the effect of pepstatin in the purification process, 0.2 ug/ml of pepstatin was added to the 10× concentrated medium and to the buffers for the S-Sepharose column. Under these conditions, 97% of EPO was recovered from the S-Sepharose Fast Flow column compared to approximately 60% without the use of a protease inhibitor.

[1] = 24 hour urine volume and urine osmolality; details: pre versus post treatment, versus saline
[2] = tested on: lysosomal enzymes (hexoseaminidase, cathepsin B, acid sphigomyelinase, and sulfatase B); assay: Lysosomal enzyme activities in kidney cortex after injection; format: in vivo, rat; details: one day after injection, not acid phosphatase
Description: (§1) The mechanism of Poly-D-Glu-induced acute lysosomal storage condition in proximal tubular cells was addressed.

kidney = assay: Renal histology: apoptosis, Trichrome staining for fibrosis, Vimetin immunostaining
Description: The immunohistochemical methods are standard and routinely used in many research and clinical labs.

erythropoietin = assay: Immunohistochemical staining of kidney sections for erythropoietin; format: in vivo, rat; details: for erythropoietin staining of proliferating interstitial cells: 250 mg/kg/day sc for 4 days, euthanized on day 5; for EPO-producing peritubular cells after cessation of treatment: 6 days after the cessation of a 4-day treatment, 250 mg/kg/day
Procedure: Male Sprague-Dawley rats were divided randomly into two groups. […] Kidneys were harvested quickly from the dead rats and one half of one kidney was immersed in 10% neutral buffered formalin. The formalin fixed kidneys were dehydrated and embedded in paraffin. Sections of 3 to 4 μM thickness were cut on a microtome. Sections were deparaffinized by standard methods and processed for immunohistochemical staining for CD73 (5′-nucleotidase) and erythropoietin (Epo) as described below.
Deparaffinized kidney sections were treated for exposure of antigenic sites and blocked for non-specific binding by standard methods. Following this they were incubated with specific antibodies to CD 73 (marker for resident fibroblasts in kidney) or Epo. Goat polyclonal antibodies to CD73 and Epo were purchased from the Santa Cruz Biotechnology, Santa Cruz, Calif. They were used at a dilution of 1:50. After washing off the unreacted primary antibodies, the sections were incubated with biotinylated anti-goat polyclonal antibody (secondary antibody), followed by incubation with avidin-biotin complex. Sections were then washed and incubated with substrate to visualize the antigen-antibody reactions. Positive labeling in the sections is seen as brownish color. […] Sections were examined under a Reichert Microscope and digital images were captured using a Nikon Coolpix 0995 Digital Camera.

interstitial cells = assay: Interstitial cell proliferation in rat kidney (3H-thymidine histoautoradiography, hematoxylin and eosin staining); format: in vivo
Procedure: Sprague-Dawley rats of both sexes, weighing from 180 to 200 g, were used throughout the study. A few days before the experiment, rats were adapted to the housing conditions in a central animal facility (regular 12 hours light/dark cycles, free access to standard rat chow and tap water). […] For histoautoradiographic studies, some treated animals and controls were further injected with 300 μCi of [methyl-^3H]-thymidine intraperitoneally 1 hour before their deaths.
One half of the right kidney was immersed in Boulin solution and processed for paraffin sections (approximately 5-μm thickness) destined for histopathologic and/or histoautoradiographic study. For histopathologic use, sections were stained with hematoxylin and eosin with or without periodic acid-Schiff reagent or with Giemsa stain. Histoautoradiographic studies were performed and the data were presented as described earlier (Kishore et al., 1992; Laurent et al., 1983). Briefly each section was examined along parallel straight lines, extending from the subcapsular to the juxtamedullary region. The number of total and labeled nuclei (S-phase cells) were counted, and the corresponding cell type was identified.
Histoautoradiographic labeling indices were subjected to ANOVA, and the significance of the F value was determined. […]

[3] = Aggregation and ionisation of Poly-D-glutamic acid in solution; format: physicochemical; details: 10 mg/ml, solution at pH≦6
Description: as §1

renal cortex = assay: Angiogenesis in the renal cortex; format: in vivo; details: treated rat kidney

Compound	effect on EPO immunoactivity (proteases; 5 micrograms/ml, over 29 hours, RIA)	IC50 (the concentration at which 50% of the proteases are inhibited) (proteases; 10× concentrated medium, 25 hours, range 0.0005 to 1 ug/ml)	ability of kidneys to concentrate urine as assessed by urine osmolality [1]	activities of several lysosomal enzymes in the kidney cortex [2]	mesenchymal changes (Vimetin immunostaining) (kidney; rat, in vivo)	fibrotic changes in the kidney (Trichrome staining) (kidney; versus saline)	erythropoietin staining of proliferating interstitial cells (erythropoietin; listed as Poly-D-Glu)	erythropoietin staining of proliferating interstitial cells (erythropoietin; listed as poly-D-glutamic acid)	EPO-producing peritubular cells after cessation of treatment (erythropoietin)	EPO-producing peritubular cells after cessation of treatment (erythropoietin; listed as Poly-D-Glu)	significant proliferative response of peritubular cells (3H-thymidine incorporation) (interstitial cells; 7 days after the cessation of treatment, earlier studies)	interstitial cell labeling (3H-thymidine) (interstitial cells; female rats treated for 2 days, versus saline)	size of micronic aggregates formed [3]	angiogenesis in the renal cortex (renal cortex)
CC(C)CC(=O)N[C@H](C(=O)N[C@H](C(=O)N[C@@H](CC(C)C)[C@@H](O)CC(=O)N[C@@H](C)C(=O)N[C@@H](CC(C)C)[C@@H](O)CC(=O)O)C(C)C)C(C)C [Pepstatin] (Isovaleryl-VV[Sta]A[Sta]-OH)	significant stabilizing effect	approximately 0.02 ug/ml	–	–	–	–	–	–	–	–	–	–	–	–
Poly-D-glutamic acid	–	–	does not cause marked abnormalities	increased	detectable mesenchymal changes	not much fibrotic reaction	labeled with EPO antibody	strongly stain	persistence	consistent labeling	could not be observed	considerably increased	≥ 10 μm	angiogenesis
